Data from patent US20240246918A1, “COMPOUNDS AND COMPOSITIONS AS EIF4E INHIBITORS AND THE USES THEREOF” (Ribometrix, Inc., priority 2022, published 2024).

Key:
human eIF4E protein = target: T1, human eIF4E protein (Homo sapiens, UniProt P06730); test: Biochemical competitive binding assay (TR-FRET competition, EDA-m7GDP-ATTO-647N probe); settings: read-out: hEIF4E TR-FRET IC50
T1 construct: purchased Novus NBP-45314
Summary of the method: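 IC50 values come from 4-parameter fits of the normalized 665/620 nm TR-FRET ratio. Compound was first incubated 15 min with 4 nM recombinant His-eIF4E bound to 2.5 nM Eu-anti-His antibody, then 15 min with 5 nM m7GDP-ATTO-647N tracer, in pH 7.5 HEPES buffer with 100 mM KCl, Tween-20 and BSA.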

[1] = tested on: COLO 205 colorectal tumor cells; test: Tumor cell viability inhibition assay (CellTiter-Glo 2.0, 72 hours); type: cell-based; settings: COLO 205 cell viability
Summary of the method: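 IC50 derived by 4-parameter fitting after normalizing luminescence to DMSO and max-inhibition wells. Compounds tested as 11 concentrations in 4-fold steps on COLO 205 cells seeded at 1500 per well in RPMI-1640/10% FBS; ATP content measured with CellTiter-Glo 2.0 after 72 h.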

T1 sequence (P06730 whole entry): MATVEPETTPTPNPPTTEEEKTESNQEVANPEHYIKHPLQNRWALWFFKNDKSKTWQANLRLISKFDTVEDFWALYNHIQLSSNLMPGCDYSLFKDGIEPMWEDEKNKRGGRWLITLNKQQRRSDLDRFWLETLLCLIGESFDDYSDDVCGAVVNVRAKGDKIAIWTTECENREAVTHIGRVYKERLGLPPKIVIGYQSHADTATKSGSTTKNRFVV

SMILES	IC50 (human eIF4E protein)	IC50 ([1]; Homo sapiens, COLO 205, 72 h)	IC50 [1]
CO[C@H](C1CCN([C@@H]2CCc3nc(C)n(CCOc4ccc(Cl)cc4-c4cc(C)nc5c(C(=O)O)csc45)c(=O)c3C2)CC1)C(F)(F)F (single isomer, unassigned) [Compound 552]	< 0.1 µM	< 5 µM	
Cc1cc(-c2cc(Cl)ccc2OCCn2c(C)nc3c(c2=O)C[C@](C)(N2CCC[C@]4(C2)CC4(F)F)CC3)c2scc(C(=O)O)c2n1 (single isomer, unassigned) [Compound 553]	< 0.1 µM	< 5 µM	
Cc1cc(-c2cc(Cl)ccc2OCCn2c(C)nc3c(c2=O)C[C@](C)(N2CCC[C@@]4(C2)CC4(F)F)CC3)c2scc(C(=O)O)c2n1 (single isomer, unassigned) [Compound 554]	0.1 to 0.5 µM	5 to 20 µM	
Cc1cc(-c2cc(Cl)ccc2OCCn2c(C)nc3c(c2=O)C[C@@](C)(N2CCC[C@@]4(C2)CC4(F)F)CC3)c2scc(C(=O)O)c2n1 (single isomer, unassigned) [Compound 555]	0.1 to 0.5 µM	5 to 20 µM	
Cc1cc(-c2cc(Cl)ccc2OCCn2c(C)nc3c(c2=O)CC(C)(N2CCC4(CC2)CC4(F)F)CC3)c2scc(C(=O)O)c2n1 (single isomer, unassigned) [Compound 556]	< 0.1 µM	< 5 µM	
Cc1cc(-c2cc(Cl)ccc2OCCn2c(C)nc3c(c2=O)CC(C)(N2CCC4(CC2)CC4(F)F)CC3)c2scc(C(=O)O)c2n1 (single isomer, unassigned) [Compound 557]	< 0.1 µM		< 5 µM
CO[C@@H]1CCN([C@]2(C)CCc3nc(C)n(CCOc4ccc(Cl)cc4-c4cc(C)nc5c(C(=O)O)csc45)c(=O)c3C2)CC1(C)C (single isomer, unassigned) [Compound 558]	0.1 to 0.5 µM	5 to 20 µM	
COC1CCN(C2(C)CCc3nc(C)n(CCOc4ccc(Cl)cc4-c4cc(C)nc5c(C(=O)O)csc45)c(=O)c3C2)CC1(C)C (single isomer, unassigned) [Compound 559]	0.1 to 0.5 µM	5 to 20 µM	
Cc1cc(-c2cc(Cl)ccc2OCCn2c(C)nc3c(c2=O)C[C@H](N2CCC(COC(F)(F)F)CC2)CC32CC2)c2scc(C(=O)O)c2n1 (single isomer, unassigned) [Compound 560]	< 0.1 µM	< 5 µM	
Cc1cc(-c2cc(Cl)ccc2OCCn2c(C)nc3c(c2=O)C[C@@H](N2CCC(COC(F)(F)F)CC2)CC32CC2)c2scc(C(=O)O)c2n1 (single isomer, unassigned) [Compound 561]	< 0.1 µM	< 5 µM	
CO[C@@H](C1CCN([C@H]2CCc3nc(C)n(CCOc4ccc(Cl)cc4-c4cc(C)nc5c(C(=O)O)csc45)c(=O)c3C2)CC1)C(F)(F)F (single isomer, unassigned) [Compound 562]	< 0.1 µM	< 5 µM	
CO[C@H](C1CCN([C@H]2CCc3nc(C)n(CCOc4ccc(Cl)cc4-c4cc(C)nc5c(C(=O)O)csc45)c(=O)c3C2)CC1)C(F)(F)F (single isomer, unassigned) [Compound 563]	< 0.1 µM	< 5 µM	
Cc1cc(-c2cc(Cl)ccc2OCCn2c(C)nc3c(c2=O)C[C@H](N2CCC4(CC2)CC4(F)F)CC32CC2)c2scc(C(=O)O)c2n1 (single isomer, unassigned) [Compound 564]	< 0.1 µM	< 5 µM	
COC1CCN(C2(C)CCc3nc(C)n(CCOc4ccc(Cl)cc4-c4cc(C)nc5c(C(=O)O)csc45)c(=O)c3C2)CC1(C)C (single isomer, unassigned) [Compound 565]	< 0.1 µM		< 5 µM
Cc1cc(-c2cc(Cl)ccc2OCCn2c(C)nc3c(c2=O)C[C@H](N(C)CC2CC(F)(F)C2)CC32CC2)c2scc(C(=O)O)c2n1 (single isomer, unassigned) [Compound 568]	< 0.1 µM	< 5 µM	
Cc1cc(-c2cc(Cl)ccc2OCCn2c(C)nc3c(c2=O)C[C@@H](N(C)CC2CC(F)(F)C2)CC32CC2)c2scc(C(=O)O)c2n1 (single isomer, unassigned) [Compound 569]	< 0.1 µM	< 5 µM	
Cc1nc2c(c(=O)n1CC#Cc1ccc(Cl)cc1-c1ccnc3c(C(=O)O)csc13)C[C@H](N1CCC[C@]3(C1)CC3(F)F)CC2 (single isomer, unassigned) [Compound 570, 7-(5-chloro-2-(3-(6-(1,1-difluoro-5-azaspiro[2.5]octan-5-yl)-2-methyl-4-oxo-5,6,7,8-tetrahydroquinazolin-3(4H)-yl)prop-1-yn-1-yl)phenyl)thieno[3,2-b]pyridine-3-carboxylic acid]	< 0.1 µM	< 5 µM	
Cc1cc(-c2cc(Cl)ccc2OCCn2c(C)nc3c(c2=O)C[C@H](N2CCC(c4ccccc4OC(F)(F)F)CC2)CC3)c2scc(C(=O)O)c2n1 (single isomer, unassigned) [Compound 571]	< 0.1 µM	< 5 µM	

SMILES	IC50 (human eIF4E protein)	IC50 ([1]; Homo sapiens, COLO 205, 72 h)	IC50 [1]
Cc1cc(-c2cc(Cl)ccc2OCCn2c(C)nc3c(c2=O)C[C@@H](N2CCC(c4ccccc4OC(F)(F)F)CC2)CC3)c2scc(C(=O)O)c2n1 (single isomer, unassigned) [Compound 572]	< 0.1 µM	< 5 µM	
Cc1cc(-c2cc(Cl)ccc2OCCn2c(C)nc3c(c2=O)C[C@H](N2CCC(c4cc(F)cc(F)c4F)CC2)CC3)c2scc(C(=O)O)c2n1 (single isomer, unassigned) [Compound 573]	< 0.1 µM	< 5 µM	
Cc1cc(-c2cc(Cl)ccc2OCCn2c(C)nc3c(c2=O)C[C@@H](N2CCC(c4cc(F)cc(F)c4F)CC2)CC3)c2scc(C(=O)O)c2n1 (single isomer, unassigned) [Compound 574]	< 0.1 µM	< 5 µM	
COc1cc(C2CCN([C@@H]3CCc4nc(C)n(CCOc5ccc(Cl)cc5-c5cc(C)nc6c(C(=O)O)csc56)c(=O)c4C3)CC2)ccn1 (single isomer, unassigned) [Compound 575]	< 0.1 µM	< 5 µM	
COc1cc(C2CCN([C@H]3CCc4nc(C)n(CCOc5ccc(Cl)cc5-c5cc(C)nc6c(C(=O)O)csc56)c(=O)c4C3)CC2)ccn1 (single isomer, unassigned) [Compound 576]	< 0.1 µM	< 5 µM	
Cc1cc(-c2cc(Cl)ccc2OCCn2c(C)nc3c(c2=O)C[C@H](N2CCC(c4nc(C(F)(F)F)cs4)CC2)CC3)c2scc(C(=O)O)c2n1 (single isomer, unassigned) [Compound 577]	< 0.1 µM	< 5 µM	
Cc1cc(-c2cc(Cl)ccc2OCCn2c(C)nc3c(c2=O)C[C@@H](N2CCC(c4nc(C(F)(F)F)cs4)CC2)CC3)c2scc(C(=O)O)c2n1 (single isomer, unassigned) [Compound 578]	< 0.1 µM	< 5 µM	
Cc1cc(-c2cc(Cl)ccc2OCCn2c(C)nc3c(c2=O)CC(N2CCC(OC(F)(F)F)CC2)CC32CC2)c2scc(C(=O)NS(C)(=O)=O)c2n1 (single isomer, unassigned) [Compound 579, 7-(5-chloro-2-(2-(2′-methyl-4′-oxo-6′-(4-(trifluoromethoxy)piperidin-1-yl)-6′,7′-dihydro-4′H-spiro[cyclopropane-1,8′-quinazolin]-3′(5′H)-yl)ethoxy)phenyl)-5-methyl-N-(methylsulfonyl)thieno[3,2-b]pyridine-3-carboxamide]	< 0.1 µM	< 5 µM	
Cc1cc(-c2cc(Cl)ccc2OCCn2c(C)nc3c(c2=O)C[C@H](N2CCC[C@@]4(C2)CC4(F)F)CC32CC2)c2scc(C(=O)O)c2n1 (single isomer, unassigned) [Compound 580]	< 0.1 µM	< 5 µM	
Cc1cc(-c2cc(Cl)ccc2OCCn2c(C)nc3c(c2=O)C[C@H](N2CCC[C@]4(C2)CC4(F)F)CC32CC2)c2scc(C(=O)O)c2n1 (single isomer, unassigned) [Compound 581]	< 0.1 µM	< 5 µM	
Cc1cc(-c2cc(Cl)ccc2OCCn2c(C)nc3c(c2=O)C[C@@H](N2CCC[C@@]4(C2)CC4(F)F)CC32CC2)c2scc(C(=O)O)c2n1 (single isomer, unassigned) [Compound 582]	< 0.1 µM	< 5 µM	
Cc1cc(-c2cc(Cl)ccc2OCCn2c(C)nc3c(c2=O)C[C@@H](N2CCC[C@]4(C2)CC4(F)F)CC32CC2)c2scc(C(=O)O)c2n1 (single isomer, unassigned) [Compound 583]	< 0.1 µM	< 5 µM	
Cc1cc(-c2cc(Cl)ccc2OCCn2c(C)nc3c(c2=O)C[C@H](N2CCC(c4cnc(C(F)(F)F)nc4)CC2)CC3)c2scc(C(=O)O)c2n1 (single isomer, unassigned) [Compound 584]	< 0.1 µM	5 to 20 µM	
Cc1cc(-c2cc(Cl)ccc2OCCn2c(C)nc3c(c2=O)C[C@@H](N2CCC(c4cnc(C(F)(F)F)nc4)CC2)CC3)c2scc(C(=O)O)c2n1 (single isomer, unassigned) [Compound 585]	< 0.1 µM	< 5 µM	
Cc1cc(-c2cc(Cl)ccc2OCCn2c(C)nc3c(c2=O)C[C@@H](N2CCC(c4cc(F)ccc4C(F)(F)F)CC2)CC3)c2scc(C(=O)O)c2n1 (single isomer, unassigned) [Compound 586]	< 0.1 µM	< 5 µM	
Cc1cc(-c2cc(Cl)ccc2OCCn2c(C)nc3c(c2=O)C[C@H](N2CCCC[C@H]2c2cccc(C(F)(F)F)c2)CC3)c2scc(C(=O)O)c2n1 (single isomer, unassigned) [Compound 587]	< 0.1 µM	< 5 µM	
Cc1cc(-c2cc(Cl)ccc2OCCn2c(C)nc3c(c2=O)C[C@@H](N2CCCC[C@@H]2c2cccc(C(F)(F)F)c2)CC3)c2scc(C(=O)O)c2n1 (single isomer, unassigned) [Compound 588]	0.1 to 0.5 µM	5 to 20 µM	
